Experimental data from patent US11213495B2, “Method and composition for decreasing the psychotomimetic side effect and addictive disorder of ketamine” (NATIONAL HEALTH RESEARCH INSTITUTES, priority 2016, dated 2022).
Entries after “also recorded” stand apart in the source; their conditions may differ.

Key:
Format in all cases: in vivo
Male ICR mice [1] = assay: Prepulse inhibition test (PPI) of acoustic startle; details: for PPI: ketamine 30 mg/kg alone
Method: The PPI was operated as described in our previous work (Chan et al., 2012a). Briefly, the animals were initially moved from the home cage, weighed, and then placed into the restrainers in the SR-LAB (San Diego Instruments, San Diego, Calif., USA) acoustic startle chambers for 30-min habituation. The test drug (0, 30 and 100 mg/kg) was administered 30 min prior to ketamine (30 mg/kg) or saline injection. After administration of ketamine or saline, the experiment started with a 5-min adaptation period during which the animals were exposed to 67-dB background white noise, and this background noise was continued throughout the session. Then, the following adaptation period startle session began with five initial startle stimuli (120 dB bursts of white noise, 40 ms duration). After the first five initial stimuli, mice received five different trial types: pulse alone trials (120 dB bursts of white noise, 40 ms duration), three prepulse and pulse trials in which 76, 81, or 86 dB white noise bursts (9, 14, and 19 dB above background) of 20 ms duration preceded 120 dB pulse by 100 ms prepulse onset to pulse onset, and no-stimuli trials during which only background noise was applied. Each of these trial types was presented five times in randomized order. The inter trial interval was 7-23 s, and the test lasted 15 min in total. Prepulse inhibition was calculated as the percent inhibition of the startle amplitude evoked by the pulse alone: % PPI=(magnitude on pulse alone trial−magnitude on prepulse+pulse trial/magnitude on pulse alone trial)×100.

Male ICR mice [2] = assay: Rotarod test (motor coordination)
Method: Motor coordination was examined using an automated rotarod device (Singa; Technology Co., Ltd, Taiwan) for a maximum of 6 mice. A computer recorded the latency to fall in seconds. During two-three days training period, the mice were first trained on the rotarod at a constant speed of 20 rotations per minute (rpm) until all of the mice were able to spend at least 3 min on the road. The test drug (0, 30 and 100 mg/kg) was administered 30 min prior to the ketamine (30 mg/kg) or saline injection. Then, the mice were tested 10, 15, 20, 25, and 30 min after ketamine injection.

Male Sprague-Dawley rats = assay: Ketamine intravenous self-administration (IVSA) under progressive ratio (PR) schedule
Method: The dose-dependent effects of betaine and its metabolite DMG on ketamine addiction were evaluated by the intravenous self-administration (IVSA) paradigm under a progressive ratio (PR) schedule. Animals were implanted indwelling catheters flushing of ketamine (0.5 mg/kg/per infusion), termed the training dose, under a FR1 schedule during daily 3-h sessions. After acquisition of stable responding for ketamine (criterion of less than 20% deviation from the mean of the total number of reinforcers earned in three consecutive sessions for each rat), the ketamine reinforcement schedule was changed to FR2 and maintained until responding stabilized at least for 3 days. Then, the PR schedule was conducted. The lever presses required to gain an infusion was determined by: 5×e^(infusion number×0.2)−5 (i.e., 1, 2, 4, 6, 9, […], 15, 20, 25, 32, etc). […] The dose-dependent effects of betaine of self-administration of various doses of ketamine ([…]) were assessed by pretreatment 30 min prior to their daily operant session using a within-subject Latin square design.

Male ICR mice [3] = assay: Novelty suppressed feeding test (NSF); details: 1 h prior to test, vs saline-treated mice
Method: NSF test consisted of food-depriving mice overnight (24 hours). The test drug (10, 20 and 30 mg/kg), ketamine (10 mg/kg) or saline was administered 1 h prior to the test. At the time of testing, a single food pellet placed in the middle of a novel environment (a test box 40×40×40 cm). The latency to start feeding was used as a measure for depressive-like or anxiety-like behavior.

Male ICR mice [4] = assay: Forced swim test (FST): duration of immobility, struggling and swimming
Method: FST was conducted for two consecutive days. Mice were placed in a Plexiglas cylinder (33.5 cm height, 20 cm diameter) filled with 25±2° C. water to a height of 18-20 cm. For the first exposure, mice were placed in the water for 15 min (pre-test session) followed by […]. Twenty-four hours later (day 1 test session), various doses of test drug (at 0, 30 and 100 mg/kg) was administered 30 min prior to the ketamine (10 mg/kg) or saline. Then, the mice were tested 30 min after ketamine injection which placed in the water again for a 6 min session (test session), the first 2 minutes has elapsed. Immobility was assigned when no additional activity was observed other than that required to keep the head above the water.
This experiment included a control group and various doses of ketamine (3, 10, 15 mg/kg), betaine (10, 20, 30 mg/kg) and betaine (10, 20, 30 mg/kg) pretreatment prior to ketamine (fixed dose at 10 mg/kg). […] There was no significant effect of test session or interaction.

Male ICR mice [5] = assay: Social interaction test
Method: This protocol was modified from the original social interaction test (Lin et al. 2010; Qiao et al. 2001). The social interaction between pairs of mice was examined in an open-field box (35×35×30 cm) under normal room lighting. The paired mice were randomly assigned from different home cages with the same drug treatment. […] Five minutes later, each pair of unfamiliar mice was placed in the apparatus for 10 min and the total time that a pair spent in social interaction and specific social interaction behaviors (sniffing the partner, following, mounting, and crawling under or over the partner) were recorded by an observer who was blind to the drug treatments.

Male ICR mice [6] = assay: Loss of righting reflex (LORR)
Method: The test drug betaine (0, 300, and 600 mg/kg) or DMG (0, 100 and 300 mg/kg) was administered 30 min prior to the anesthetic doses of ketamine (100 mg/kg). Then, the mice were placed in a clean cage until the righting reflex was lost. They were then placed in the supine position until recovery and the onset and duration of the loss of righting reflex was recorded. Recovery of the righting reflex was defined as the ability to perform three successive rightings.

[7] = ketamine 15 mg/kg, day 7 retest session, vs control
[8] = betaine 30 mg/kg pretreatment prior to ketamine 10 mg/kg, day 1 test session
[9] = betaine 300 and 600 mg/kg 30 min prior to ketamine 100 mg/kg

With `CNC1(c2ccccc2Cl)CCCCC1=O` (racemic) [ketamine] the PPI (Male ICR mice [1]) was “reduced”, the PPI (Male ICR mice [1]; listed as Ketamine) was “significantly reduced” and the “latency to stay on the rotarod” value (Male ICR mice [2]; ketamine 30 mg/kg, 10-30 min after administration) was “significantly decreased”. For the same molecule, the “ketamine consumption over the dose-response curve” value (Male Sprague-Dawley rats; ketamine 0.1-0.5 mg/kg/infusion, control (vehicle-treated) animals) was “increase”, the “latency to feed in the NSF” value (Male ICR mice [3]; ketamine 10 mg/kg) was “significantly reduced” and the “duration of immobility in FST” value (Male ICR mice [4]; ketamine 10 mg/kg, DMG experiment, tested 30 min after ketamine) was “significantly decreased”. The “duration of struggling in FST” value (Male ICR mice [4]; ketamine 15 mg/kg, day 1 test session, vs control) was “significantly increased”, the “duration of struggling in FST” value (Male ICR mice [4]; [7]) was “significantly increased” and the “duration of swimming in FST” value (Male ICR mice [4]; [7]) was “significantly increased”. The “duration of immobility in FST” value (Male ICR mice [4]; ketamine 15 mg/kg, day 7 retest session, vs vehicle control) was “significantly decreased”, the “duration of struggling in FST” value (Male ICR mice [4]; ketamine 15 mg/kg, over both sessions) was “significantly increased” and the “duration of immobility in FST” value (Male ICR mice [4]; ketamine 3, 10 and 15 mg/kg, day 1 test session, vs vehicle control) was “significantly reduced”. For the same molecule, the “duration of swimming in FST” value (Male ICR mice [4]; ketamine 10 and 15 mg/kg, day 1 test session, vs control) was “significantly increased”, the “duration of immobility in FST” value (Male ICR mice [4]; ketamine 10 and 15 mg/kg, main effect over both sessions) was “significantly decreased” and the “duration of swimming in FST” value (Male ICR mice [4]; ketamine 10 and 15 mg/kg, over both sessions) was “significantly increased”. The social interaction duration (Male ICR mice [5]; ketamine 30 mg/kg) was “reduction” and the “loss of righting reflex” value (Male ICR mice [6]; ketamine 100 mg/kg i.p. (anesthetic dose)) was “produced a loss of righting reflex; also recorded: produced LORR”.
With `C[N+](C)(C)CC(=O)O` [betaine] the “ketamine-induced disruption of PPI” value (Male ICR mice [1]; betaine 100 mg/kg pretreatment, ketamine 30 mg/kg) was “significantly attenuated”, the “reduction of PPI” value (Male ICR mice [1]; betaine prior to saline) was “did not” and the “ketamine-induced motor in coordination” value (Male ICR mice [2]; betaine 30 and 100 mg/kg i.p. 30 min prior to ketamine 30 mg/kg) was “significantly reduced”. For the same molecule, the “reduction of ketamine IVSA” value (Male Sprague-Dawley rats; betaine 100 mg/kg pretreatment, PR schedule) was 3-5 times, the IVSA of ketamine (Male Sprague-Dawley rats; betaine pretreatment (30 and 100 mg/kg), ketamine 0.1-0.5 mg/kg/infusion, PR schedule) was “dose-dependently reduced” and the “significant effective dose for reduction of ketamine IVSA” value (Male Sprague-Dawley rats; betaine pretreatment, PR schedule) was 30 mg/kg. For the same molecule, the “latency to feed in the NSF” value (Male ICR mice [3]; betaine 30 mg/kg i.p.) was “significantly reduced”, the “duration of immobility in FST compared with ketamine (10 mg/kg) alone” value (Male ICR mice [4]; [8]) was “significantly shorter duration of immobility” and the “duration of swimming in FST compared with ketamine (10 mg/kg)” value (Male ICR mice [4]; [8]) was “longer duration of swimming”. The “duration of immobility in FST compared with ketamine (10 mg/kg) alone” value (Male ICR mice [4]; betaine 30 mg/kg pretreatment prior to ketamine 10 mg/kg, over both sessions) was “significantly shorter duration of immobility”, the “duration of struggling in FST” value (Male ICR mice [4]; betaine 30 mg/kg, day 7 retest session, vs control) was “significantly increased” and the “duration of immobility in FST” value (Male ICR mice [4]; betaine 10, 20 and 30 mg/kg pretreatment prior to ketamine 10 mg/kg, day 7 retest session, vs vehicle control) was “significantly decreased”. The “duration of immobility in FST” value (Male ICR mice [4]; betaine 10, 20 and 30 mg/kg pretreatment prior to ketamine 10 mg/kg, main effect over both sessions) was “significantly decreased”, the “duration of immobility in FST” value (Male ICR mice [4]; betaine 10, 20 and 30 mg/kg prior to ketamine 10 mg/kg, day 1 test session, vs vehicle control) was “significantly reduced” and the “duration of swimming in FST” value (Male ICR mice [4]; betaine 10, 20 and 30 mg/kg prior to ketamine 10 mg/kg, day 7 retest session, vs control) was “significantly increased”. For the same molecule, the “duration of swimming in FST” value (Male ICR mice [4]; betaine 20 and 30 mg/kg, day 1 test session, vs control) was “significantly increased”, the “duration of immobility in FST” value (Male ICR mice [4]; betaine 20 and 30 mg/kg, day 1 test session, vs vehicle control) was “significantly reduced” and the “duration of immobility in FST” value (Male ICR mice [4]; betaine 20 and 30 mg/kg, day 7 retest session, vs vehicle control) was “significantly decreased”. For the same molecule, the “duration of immobility in FST” value (Male ICR mice [4]; betaine 20 and 30 mg/kg, main effect over both sessions) was “significantly decreased”, the “duration of struggling in FST” value (Male ICR mice [4]; betaine 20 and 30 mg/kg, over both sessions) was “significantly increased” and the “reduction in social interaction duration induced by ketamine” value (Male ICR mice [5]; betaine 30 and 100 mg/kg i.p. prior to ketamine 30 mg/kg) was “significantly attenuated”. For the same molecule, the “duration of ketamine-induced loss of righting reflex” value (Male ICR mice [6]; [9]) was “did not affect” and the “onset of ketamine-induced loss of righting reflex” value (Male ICR mice [6]; [9]) was “did not affect”.
